From article PMC8605905 (Oxidative Medicine and Cellular Longevity, 2021)
Like-named read-outs stand apart in the source and are kept apart here.

Tests used:
[1] = DPPH radical-scavenging assay; settings: compounds 10–160 μM, 100 μM DPPH, 30 min, n = 3
Description: Stable free radical 1,1-diphenyl-2-picrylhydrazyl (DPPH) (Sigma-Aldrich) was applied to test the potential radical-scavenging activity of the coumarin-chalcone derivatives. In brief, the compounds (10–160 μM) were added to an ethanol solution containing 100 μM DPPH. The mixture was vortexed for 15 sec, left to stand for 30 min at room temperature, and scavenging capacity was measured at a wavelength of 517 nm using a Multiskan GO microplate spectrophotometer (Thermo Fisher Scientific, Waltham, MA, USA).

Aβ42 peptide = molecular target: T1, Aβ42 peptide (Homo sapiens, UniProt P05067); assay: Thioflavin T assay of Aβ aggregation; type: biochemical; settings: Aβ42 5 μM, compound 5–20 μM, 37°C 48 h; read-out: Aβ aggregation inhibition EC50 (Thioflavin T)
T1 construct: containing Aβ42 peptide (5 μM); purchased AnaSpec; host or cells: synthetic
T1 sequence (P05067 672-713 limits assumed): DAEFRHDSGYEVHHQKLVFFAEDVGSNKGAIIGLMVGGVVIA
Description: In brief, the tested compound (5–20 μM) was added to a buffer solution (150 mM NaCl, 20 mM Tris-HCl (pH 8.0)) containing Aβ42 peptide (5 μM) and incubated at 37°C for 48 h. Thioflavin T (10 μM) (Sigma-Aldrich) then was added, and the mixture was incubated for 5 min at room temperature. Subsequently, the fluorescence intensity was quantified at 420/485 nm of excitation/emission wavelengths using a FLx800 microplate reader (Bio-Tek, Winooski, VT, USA). EC50 was computed as described.

Aβ-GFP SH-SY5Y cells [2] = assay: High content analysis of Aβ-GFP fluorescence; type: cell-based, Human; settings: for EC50: Homo sapiens, read-out: EC50 in Aβ aggregation inhibition (GFP fluorescence); for Concentration significantly augmenting green fluorescence intensity (Aβ-GFP): day 8
Description: (§1) Human neuroblastoma SH-SY5Y-derived Aβ-GFP [23] and ∆K280 tauRD-DsRed cells were kept in DMEM/nutrient mixture F12 (DMEM/F12) containing 10% FBS, 5 μg/ml blasticidin, and 100 μg/ml hygromycin (InvivoGen, San Diego, CA, USA). Doxycycline (Sigma-Aldrich) was applied to induce the expression of Aβ-GFP (5 μg/ml doxycycline) or ∆K280 tauRD-DsRed (2 μg/ml doxycycline).
On day 1, Aβ-GFP or ∆K280 tauRD-DsRed SH-SY5Y cells were seeded into 96-well plates (2.5 × 10^4/well) and treated with retinoic acid (10 μM; Sigma-Aldrich) to prompt neuronal differentiation. […] Image Acquisition and Analysis Software (MetaXpress) (Molecular Devices, Sunnyvale, CA, USA) was used to analyse the images. CellROX Orange (5 μM; Molecular Probes, Eugene, OR, USA) (for Aβ-GFP cells) or dichloro-dihydro-fluorescein diacetate (DCFH-DA, 10 μM; Invitrogen) (for ∆K280 tauRD-DsRed cells) was added to the cells and incubated at 37°C for 30 min.

Aβ-GFP SH-SY5Y cells [3] = assay: ROS assay (CellROX Orange) in Aβ-GFP cells; type: cell-based, Human; settings: tested 1.2–5 μM
Description: (§2) On day 1, Aβ-GFP or ∆K280 tauRD-DsRed SH-SY5Y cells were seeded into 96-well plates (2.5 × 10^4/well) and treated with retinoic acid (10 μM; Sigma-Aldrich) to prompt neuronal differentiation. […] On day 8, cells were stained with Hoechst 33342 (0.1 μg/ml; Sigma-Aldrich) for 30 min, and cell images were automatically captured at excitation/emission wavelengths of 482/[…] (GFP fluorescence) or 543/593 nm (DsRed fluorescence) using a high content analysis (HCA) system (Micro Confocal High-Content Imaging System). Image Acquisition and Analysis Software (MetaXpress) (Molecular Devices, Sunnyvale, CA, USA) was used to analyse the images. CellROX Orange (5 μM; Molecular Probes, Eugene, OR, USA) (for Aβ-GFP cells) or dichloro-dihydro-fluorescein diacetate (DCFH-DA, 10 μM; Invitrogen) (for ∆K280 tauRD-DsRed cells) was added to the cells and incubated at 37°C for 30 min. The HCA system was used to measure intracellular ROS at 531/593 nm (CellROX Orange fluorescence) or 482/536 nm (DCFH-DA fluorescence) of excitation/emission wavelengths.

Aβ-GFP SH-SY5Y cells [4] = assay: Real-time PCR of Aβ-GFP RNA; type: cell-based, Human; settings: 5 μM
Description: (§3) To measure the Aβ-GFP/tauRD-DsRed RNA expression on day 8, total RNA was extracted from collected cells and reverse-transcribed to cDNA (SuperScript III reverse transcriptase; Invitrogen, Waltham, MA, USA). Real-time quantitative PCR was performed using 100 ng of cDNA and the gene-specific TaqMan fluorogenic probe PN4331348 (EGFP) or customized Assays-by-Design probe for DsRed and 4326321E (HPRT1) (StepOnePlus Real-time PCR system, Applied Biosystems, Foster City, CA, USA). The RNA expression level was calculated using the formula 2^ΔCt, ΔCT = CT (control) − CT (target), in which CT indicates the cycle threshold.

caspase 1 [5] = assay: Caspase 1 activity in Aβ-GFP cells; type: cell-based, Human; settings: 5 μM, vs untreated cells
Description: (§4) Aβ-GFP or ∆K280 tauRD-DsRed SH-SY5Y cells were seeded into 6-well plates (5 × 10^5/well) and treated with retinoic acid, coumarin-chalcone derivatives, and doxycycline as previously described. On day 8, cells were collected and lysates were prepared with six freeze/thaw cycles. The supernatant was collected by centrifugation, followed by measurement of the caspase 1 activity in 50 μg aliquots of cell extract using the ICE fluorometric assay kit (BioVision, Milpitas, CA, USA). Following incubation of the mixture at 37°C for 2 h, fluorescence was measured with excitation/emission wavelengths at 400/505 nm (FLx800 fluorescence microplate reader). In addition, the collected cells were lysed by sonication. Acetylcholinesterase (AChE) activity in the supernatant was determined in 10 μg aliquots of cell extracts using the AChE activity assay kit (Sigma-Aldrich) according to the manufacture's protocol. Finally, the absorbance at 412 nm was measured using a Multiskan GO spectrophotometer (Thermo Fisher Scientific).

[6] = tested on: Acetylcholinesterase (AChE); assay: AChE activity in Aβ-GFP cells; type: cell-based; settings: 5 μM, vs untreated cells
Description: as §4

[7] = tested on: ∆K280 tauRD-DsRed SH-SY5Y cells; assay: High content analysis of ΔK280 tauRD-DsRed fluorescence; type: cell-based, Human; settings: for EC50: Homo sapiens, read-out: Extrapolated EC50 in inhibiting ∆K280 tauRD aggregation (DsRed fluorescence)
Description: as §1, with “Human 293-derived Flp-In-293 cells (Invitrogen, Madison, WI, USA) were cultivated in Dulbecco's modified Eagle's medium (DMEM) containing 10% foetal bovine serum (FBS) (Thermo Fisher Scientific). Human” for “Human”
as §2

physchem = type: physicochemical; settings: aqueous buffer
Description: The coumarin-chalcone derivatives (E)-4-hydroxy-3-(3-(p-tolyl)acryloyl)-2H-chromen-2-one (LM-016), (E)-3-(3-(4-(dimethylamino)phenyl)acryloyl)-4-hydroxy-2H-chromen-2-one (LM-021), and (E)-3-(3-(furan-2-yl)acryloyl)-4-hydroxy-2H-chromen-2-one (LM-022) were synthesized in our laboratory as previously described and examined by using NMR spectroscopy. The LM-016, LM-021, and LM-022 stayed soluble in cell culture medium at concentrations up to 100 μM.

ΔK280 tauRD protein = molecular target: T2, ΔK280 tauRD protein (Homo sapiens, UniProt P10636, DEL597-597); assay: Thioflavin T assay of ΔK280 tauRD aggregation; type: biochemical
T2 construct: E. coli-derived ΔK280 tauRD protein; made in house; host or cells: E. coli
T2 sequence (P10636 with tags, fused parts or gaps DEL597-597): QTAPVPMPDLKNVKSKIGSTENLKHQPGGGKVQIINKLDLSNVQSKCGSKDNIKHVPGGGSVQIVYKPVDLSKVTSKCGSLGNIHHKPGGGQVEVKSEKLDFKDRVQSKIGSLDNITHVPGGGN
Description: The potential of Congo red and coumarin-chalcone derivatives in inhibiting tau misfolding was assessed using the E. coli-derived ΔK280 tauRD protein [21]. In brief, ΔK280 tauRD protein (20 μM) was incubated with the tested compound (1−10 μM) in buffer (150 mM NaCl, 20 mM Tris-HCl (pH 8.0)) at 37°C for 48 h to form aggregates. Thioflavin T (5 μM) was then added, and the mixture was incubated at room temperature for 25 min. The fluorescence intensity of the samples was measured, and the EC50 was computed as described.

[8] = tested on: ∆K280 tauRD-DsRed SH-SY5Y cells; assay: Real-time PCR of tauRD-DsRed RNA; type: cell-based, Human; settings: 10 μM
Description: as §3

caspase 1 [9] = assay: Caspase 1 activity in ΔK280 tauRD-DsRed cells; type: cell-based, Human; settings: 10 μM, ∆K280 tauRD-DsRed cells
Description: as §4

[10] = tested on: ∆K280 tauRD-DsRed SH-SY5Y cells; assay: High content analysis of neurite outgrowth in ΔK280 tauRD-DsRed cells; type: cell-based, Human; settings: 10 μM
Description: On day 1, Aβ-GFP or ∆K280 tauRD-DsRed SH-SY5Y cells were plated into 24-well plates (6 × 10^4/well) followed by addition of retinoic acid. On day 2, cells were treated with coumarin-chalcone derivatives (5 or 10 μM) and with doxycycline (5 or 2 μg/ml) to induce the expression of Aβ-GFP or ∆K280 tauRD-DsRed. On day 8, 4% paraformaldehyde, 0.1% Triton X-100, and 3% BSA were used to fix, permeabilize, and block cells, respectively. Subsequently, the cells were stained with TUBB3 (neuronal class III β-tubulin) primary antibody (1 : 1000; Covance, Princeton, NJ, USA) at 4°C overnight. Goat anti-rabbit Alexa Fluor 555 secondary antibody (1 : 1000; Thermo Fisher Scientific) was then added, followed by a 3 h incubation at room temperature. Following staining nuclei with 4′,-6-diamidino-2-phenylindole (DAPI) (0.1 μg/ml; Sigma-Aldrich), the neurons were imaged by using the HCA system and analysed by using the Neurite Outgrowth Application Module (MetaXpress; Molecular Devices).
To monitor the cAMP-mediated signal transduction pathway, CRE-GFP 293 cells in 6-well plates (1 × 10^6/well) were pretreated with kinase inhibitor H-89 (LC Laboratories, Woburn, MA, USA), KN-62 (Cayman Chemical, Ann Arbor, MI, USA), U0126 (LC Laboratories), or wortmannin (LC Laboratories) (10 μM) for 4 h before forskolin or LM-021 (10 μM) addition for 5 h. GFP fluorescence/protein and total/phosphorylated PKA, CaMKII, ERK, PI3K, and CREB levels were examined. In addition, Aβ-GFP or ∆K280 tauRD-DsRed SH-SY5Y cells were treated with retinoic acid (10 μM) on day 1, followed by the addition of LM-021 (5 or 10 μM) and doxycycline (5 or 2 μg/ml) on day 2, as described. Kinase inhibitors (10 μM) were added on day 6. On day 8, the cells were collected for protein expression analysis of BDNF, BCL2 (BCL2 apoptosis regulator), and BAX (BCL2 associated X, apoptosis regulator), and total/phosphorylated PKA, CaMKII, ERK, PI3K, and CREB. Also, cells were stained with DAPI and assessed for neurite outgrowth as described above.

[11] = ∆K280 tauRD-DsRed SH-SY5Y cells, tested 2.5–10 μM

Row | SMILES | EC50 [1] [µM] | EC50 (Aβ42 peptide) [µM] | EC50 (Aβ-GFP SH-SY5Y cells [2]; SH-SY5Y) [µM] | Concentration significantly augmenting green fluorescence intensity (Aβ-GFP) (Aβ-GFP SH-SY5Y cells [2]; tested 1.2–5 μM) [µM] | Concentration effectively decreasing ROS levels caused by Aβ overexpression (Aβ-GFP SH-SY5Y cells [3]) [µM] | Aβ-GFP RNA levels (Aβ-GFP SH-SY5Y cells [4]) | Caspase 1 activity (caspase 1 [5]) | AChE activity [6] | EC50 ([7]; SH-SY5Y) [µM] | solubility (physchem; cell culture medium, read-out: Concentration up to which the compound stayed soluble) [µM] | EC50 (Aβ-GFP SH-SY5Y cells [2]; Aβ-GFP SH-SY5Y cells, tested 1.2–5 μM) [µM] | EC50 [7, 11] [µM] | solubility (physchem) [µM] | EC50 (ΔK280 tauRD protein) [µM] | Concentration significantly elevating DsRed fluorescence intensity ([7]; tested 2.5–10 μM, day 8) [µM] | ∆K280 tauRD-DsRed RNA level [8] | Caspase 1 activity (caspase 1 [9]) | Neurite length and branches [10]
1 | Cc1ccc(/C=C/C(=O)c2c(O)c3ccccc3oc2=O)cc1 [LM-016, (E)-4-hydroxy-3-(3-(p-tolyl)acryloyl)-2H-chromen-2-one] | 126 | 15 | 7 | 2.5 to 5 | 2.5 to 5 | did not significantly modify | reduced | reduced | 70 | ≥ 100 | – | – | – | – | – | – | – | –
2 | O=C(/C=C/c1ccco1)c1c(O)c2ccccc2oc1=O [LM-022, (E)-3-(3-(furan-2-yl)acryloyl)-4-hydroxy-2H-chromen-2-one] | 143 | 18 | – | 2.5 to 5 | 2.5 to 5 | did not significantly modify | – | – | – | – | 8.2 | 73 | ≥ 100 | – | – | – | – | –
3 | Nc1c(/N=N/c2ccc(-c3ccc(/N=N/c4cc(S(=O)(=O)O)c5ccccc5c4N)cc3)cc2)cc(S(=O)(=O)O)c2ccccc12 [Congo red, reference compound] | – | – | – | – | – | – | – | – | – | – | – | 57 | – | 10 | 10 | did not significantly alter | lowered caspase 1 activity | successfully ameliorated
